Data: paper PMC8480901 (PLoS ONE, 2021)
Where “and” joins values, the source holds several entries; their conditions need not be identical. Equal values may be shown once.

Experiments:
J774.2 mouse macrophages = assay: Cytotoxicity in J774.2 mouse macrophages (adenylate kinase release, ToxiLight); assay type: cell-based; conditions: for cell viability: J774.2 cells; for fold-change of adenylate kinase release at test concentration vs vehicle control, Mean ± SEM: J774.2 mouse macrophages, n=2
Experimental: The effect of t est compounds on cell viabilit y of J 774.2 macrophages and human PBMCs […]
was determined b y comp aring th e aden yl ate kinas e signal obtain ed in the p resence of diff er ent concentrations of compounds with those obtained in DMSO (vehicle) control. Signals were […]
divided,and the results were ex pressed as fold-change versus v ehicle con trol .

[1] = tested on: TNF-α, IL-6, IL-1β, GM-CSF, CXCL-1, CXCL-2, CCL-2 and MMP-9 in lung tissue; assay: LPS-induced cytokines, chemokines and MMP-9 in mouse lung homogenates (Luminex, ELISA); conditions: for CCL2 % reduction / CXCL1 % reduction / CXCL2 % reduction / GM-CSF % reduction / IL-1β % reduction / IL-6 % reduction / MMP9 % reduction / TNFα % reduction / CCL2 / CXCL1 / CXCL2 / GM-CSF / IL-1β / IL-6 / MMP9 / TNFα / CCL2 Mean / CXCL1, Mean / CXCL2, Mean / GM-CSF Mean / IL-1β Mean / IL-6 Mean / MMP9, Mean / TNFα Mean: lung homogenate, LPS; for CCL2 / CXCL1 / CXCL2 / GM-CSF / IL-1β / IL-6 / MMP9 / TNFα: individual animal, listed as Lef; for CCL2 Mean / CXCL1, Mean / CXCL2, Mean / GM-CSF Mean / IL-1β Mean / IL-6 Mean / MMP9, Mean / TNFα Mean: mean of 8
Experimental: To induce pulmonary neutrophilia, mice in the control group received intranasal (IN) 50 μL saline, and all other animals received 5 μg LPS/50 μL saline IN per mouse.
After bronchoalveolar lavage, lungs were removed, weighed, snap frozen, and stored at −80°C until analysis. To homogenize the tissue, the frozen lungs were thawed and placed in Precellys CK28 Hard Tissue tubes (BERTIN Instruments, Montigny-le-Bretonneux, France) in 1 mL PBS (Gibco, Life Technologies, Paisley, UK) supplemented with protease inhibitors (Halt™ Protease Inhibitor Cocktail [100×]; Thermo Fisher Scientific, Rockford, IL, USA). A Precellys homogenizer (BERTIN Instruments) was used, shaking at 6800 rpm for three 30-second pulses separated by 15-second pauses. After homogenization, samples were centrifuged at 18,000×g for 10 minutes at 4°C, and the supernatants were collected for analysis.
Concentrations of tumor necrosis factor (TNF)-α, IL-6, granulocyte-macrophage colony-stimulating factor (GM-CSF), chemokine (C-X-C motif) ligand (CXCL)-1, CXCL-2, and chemokine (C-C motif) ligand (CCL)-2 in mouse lung homogenates were analyzed with the Mouse Premixed Multi-Analyte Kit (R&D Systems, Minneapolis, MN, USA) per the manufacturer’s protocol and using a Luminex 200 System (Luminex Corporation, Austin, TX, USA). Cytokine and chemokine concentrations were determined from blank-corrected median fluorescence intensity of each sample via xPONENT® software (Luminex Corporation), interpolating from standard curves generated with a 5-parameter logistic curve-fit.
Mouse Total MMP (matrix metalloprotease)-9 and IL-1β/IL-1F2 DuoSet ELISA (enzyme-linked immunosorbent assay) kits (R&D Systems) were used to measure concentrations of MMP-9 and IL-1β, respectively, in lung homogenates per the manufacturer’s protocols. Absorbance at 450 nm was measured using the SpectraMax i3 (Molecular Devices, San Jose, CA, USA). Concentrations of MMP-9 and IL-1β in samples were determined by interpolation from standard curves.
Differences between treated versus vehicle groups were determined using the Mann-Whitney test and were considered statistically significant when P<0.05. Outliers in the analysis of cytokine and chemokine concentrations were identified using the Grubbs test. No criteria were set for inclusion/exclusion of animals during the experiment or data points during the analysis.

[2] = all doses (10, 30, 100 mg/kg SC)
[3] = all doses tested (10, 30, 100 mg/kg SC), vs vehicle control

SMILES: C=C[C@]1(C)C[C@@H](OC(=O)CS[C@@H]2CC[C@@H](N)C[C@H]2O)[C@]2(C)[C@H](C)CC[C@]3(CCC(=O)[C@H]32)[C@@H](C)[C@@H]1O [Lefamulin]
- cell viability (J774.2 mouse macrophages; 30 μM): reduced
- cell viability (J774.2 mouse macrophages; 100 μM): reduced
- fold-change of adenylate kinase release at test concentration vs vehicle control, Mean ± SEM (J774.2 mouse macrophages; 0.03 µM): 1.33 ± 0.11 fold-change
- fold-change of adenylate kinase release at test concentration vs vehicle control, Mean ± SEM (J774.2 mouse macrophages; 0.1 µM): 1.27 ± 0.23 fold-change
- fold-change of adenylate kinase release at test concentration vs vehicle control, Mean ± SEM (J774.2 mouse macrophages; 0.3 µM): 1.10 ± 0.16 fold-change
- fold-change of adenylate kinase release at test concentration vs vehicle control, Mean ± SEM (J774.2 mouse macrophages; 1 µM): 0.89 ± 0.08 fold-change
- fold-change of adenylate kinase release at test concentration vs vehicle control, Mean ± SEM (J774.2 mouse macrophages; 3 µM): 1.12 ± 0.18 fold-change
- fold-change of adenylate kinase release at test concentration vs vehicle control, Mean ± SEM (J774.2 mouse macrophages; 10 µM): 1.26 ± 0.27 fold-change
- fold-change of adenylate kinase release at test concentration vs vehicle control, Mean ± SEM (J774.2 mouse macrophages; 30 µM): 2.00 ± 0.13 fold-change
- fold-change of adenylate kinase release at test concentration vs vehicle control, Mean ± SEM (J774.2 mouse macrophages; 100 µM): 6.18 ± 0.05 fold-change
- levels of all cytokines and chemokines assessed, as well as of MMP-9, in lung homogenate ([1]; 10, 30, and 100 mg/kg SC, vs vehicle): significantly reduced
- MMP-9 levels in lung homogenate ([1]; 30 and 100 mg/kg SC): Significant reductions
- IL-1β concentrations in lung homogenate [1, 2]: dose-dependent effect
- chemokines and GM-CSF in lung homogenate [1, 2]: Significant reductions
- IL-6 concentrations in lung homogenate [1, 3]: significantly reduced
- TNF-α concentrations in lung homogenate [1, 3]: significantly reduced
- IL-1β concentrations in lung homogenate ([1]; highest dose, 100 mg/kg SC): significant inhibition
- CCL2 % reduction ([1]; 10 mg/kg): 93%
- CXCL1 % reduction ([1]; 10 mg/kg): 62%
- CXCL2 % reduction ([1]; 10 mg/kg): 73%
- GM-CSF % reduction ([1]; 10 mg/kg): 85%
- IL-1β % reduction ([1]; 10 mg/kg): -19%
- IL-6 % reduction ([1]; 10 mg/kg): 106%
- MMP9 % reduction ([1]; 10 mg/kg): 8%
- TNFα % reduction ([1]; 10 mg/kg): 79%
- CCL2 ([1]; 10 mg/kg): 1377.65 pg/mL and 537.39 pg/mL and 646.70 pg/mL and 438.83 pg/mL and 518.31 pg/mL and 1456.64 pg/mL and 908.74 pg/mL and 229.87 pg/mL
- CXCL1 ([1]; 10 mg/kg): 6971.93 pg/mL and 4329.90 pg/mL and 5523.90 pg/mL and 4582.09 pg/mL and 5582.50 pg/mL and 5633.76 pg/mL and 4136.19 pg/mL and 3104.94 pg/mL
- CXCL2 ([1]; 10 mg/kg): 5052.98 pg/mL and 3065.52 pg/mL and 3267.04 pg/mL and 2748.29 pg/mL and 3142.03 pg/mL and 3891.00 pg/mL and 3712.25 pg/mL and 1806.80 pg/mL
- GM-CSF ([1]; 10 mg/kg): 67.71 pg/mL and 29.84 pg/mL and 24.75 pg/mL and 26.44 pg/mL and 92.13 pg/mL and 45.24 pg/mL
- IL-1β ([1]; 10 mg/kg): 13048 pg/mL and 11802 pg/mL and 8955 pg/mL and 11618 pg/mL and 14924 pg/mL and 15796 pg/mL and 14205 pg/mL and 13632 pg/mL
- IL-6 ([1]; 10 mg/kg): 250.42 pg/mL and 122.57 pg/mL and 71.56 pg/mL and 75.97 pg/mL and 378.35 pg/mL and 273.00 pg/mL and 109.22 pg/mL
- MMP9 ([1]; 10 mg/kg): 2581 pg/mL and 2222 pg/mL and 2051 pg/mL and 2196 pg/mL and 2373 pg/mL and 1878 pg/mL and 2354 pg/mL and 2294 pg/mL
- TNFα ([1]; 10 mg/kg): 82.13 pg/mL and 385.92 pg/mL and 198.20 pg/mL and 183.71 pg/mL and 132.63 pg/mL and 135.37 pg/mL and 337.98 pg/mL and 306.86 pg/mL
- CCL2 Mean ([1]; 10 mg/kg): 764 pg/mL
- CXCL1, Mean ([1]; 10 mg/kg): 4983 pg/mL
- CXCL2, Mean ([1]; 10 mg/kg): 3336 pg/mL
- GM-CSF Mean ([1]; 10 mg/kg): 43 pg/mL
- IL-1β Mean ([1]; 10 mg/kg): 12997 pg/mL
- IL-6 Mean ([1]; 10 mg/kg): 175 pg/mL
- MMP9, Mean ([1]; 10 mg/kg): 2244 pg/mL
- TNFα Mean ([1]; 10 mg/kg): 220 pg/mL
- CCL2 % reduction ([1]; 30 mg/kg): 105%
- CXCL1 % reduction ([1]; 30 mg/kg): 52%
- CXCL2 % reduction ([1]; 30 mg/kg): 61%
- GM-CSF % reduction ([1]; 30 mg/kg): 95%
- IL-1β % reduction ([1]; 30 mg/kg): 8%
- IL-6 % reduction ([1]; 30 mg/kg): 120%
- MMP9 % reduction ([1]; 30 mg/kg): 26%
- TNFα % reduction ([1]; 30 mg/kg): 77%
- CCL2 ([1]; 30 mg/kg): 664.18 pg/mL and 229.87 pg/mL and 256.42 pg/mL and 281.81 pg/mL and 306.24 pg/mL and 172.04 pg/mL
- CXCL1 ([1]; 30 mg/kg): 9099.72 pg/mL and 7572.60 pg/mL and 6087.32 pg/mL and 5765.52 pg/mL and 5509.25 pg/mL and 4685.62 pg/mL and 6328.54 pg/mL and 4359.63 pg/mL
- CXCL2 ([1]; 30 mg/kg): 7789.00 pg/mL and 4810.48 pg/mL and 4106.80 pg/mL and 4675.09 pg/mL and 4634.09 pg/mL and 3899.14 pg/mL and 3943.89 pg/mL and 3825.96 pg/mL
- GM-CSF ([1]; 30 mg/kg): 46.10 pg/mL and 24.75 pg/mL and 27.29 pg/mL and 23.05 pg/mL and 21.37 pg/mL and 16.32 pg/mL and 9.66 pg/mL
- IL-1β ([1]; 30 mg/kg): 12246 pg/mL and 8161 pg/mL and 9564 pg/mL and 10656 pg/mL and 10104 pg/mL and 9202 pg/mL and 9081 pg/mL and 11831 pg/mL
- IL-6 ([1]; 30 mg/kg): 118.12 pg/mL and 87.03 pg/mL and 60.54 pg/mL and 67.15 pg/mL and 58.34 pg/mL and 45.17 pg/mL and 29.90 pg/mL and 48.46 pg/mL
- MMP9 ([1]; 30 mg/kg): 2129 pg/mL and 1886 pg/mL and 1848 pg/mL and 1924 pg/mL and 1726 pg/mL and 1867 pg/mL and 2081 pg/mL and 2097 pg/mL
- TNFα ([1]; 30 mg/kg): 186.35 pg/mL and 395.67 pg/mL and 202.12 pg/mL and 215.17 pg/mL and 246.13 pg/mL and 275.41 pg/mL and 284.25 pg/mL and 181.07 pg/mL
- CCL2 Mean ([1]; 30 mg/kg): 296 pg/mL
- CXCL1, Mean ([1]; 30 mg/kg): 6176 pg/mL
- CXCL2, Mean ([1]; 30 mg/kg): 4711 pg/mL
- GM-CSF Mean ([1]; 30 mg/kg): 23 pg/mL
- IL-1β Mean ([1]; 30 mg/kg): 10106 pg/mL
- IL-6 Mean ([1]; 30 mg/kg): 64 pg/mL
- MMP9, Mean ([1]; 30 mg/kg): 1945 pg/mL
- TNFα Mean ([1]; 30 mg/kg): 248 pg/mL
- CCL2 % reduction ([1]; 100 mg/kg): 107%
- CXCL1 % reduction ([1]; 100 mg/kg): 57%
- CXCL2 % reduction ([1]; 100 mg/kg): 64%
- GM-CSF % reduction ([1]; 100 mg/kg): 96%
- IL-1β % reduction ([1]; 100 mg/kg): 24%
- IL-6 % reduction ([1]; 100 mg/kg): 117%
- MMP9 % reduction ([1]; 100 mg/kg): 53%
- TNFα % reduction ([1]; 100 mg/kg): 81%
- CCL2 ([1]; 100 mg/kg): 329.86 pg/mL and 256.42 pg/mL and 172.04 pg/mL and 139.64 pg/mL
- CXCL1 ([1]; 100 mg/kg): 7499.26 pg/mL and 6087.32 pg/mL and 5076.24 pg/mL and 5758.20 pg/mL and 5443.29 pg/mL and 4906.96 pg/mL and 4656.06 pg/mL and 5472.61 pg/mL
- CXCL2 ([1]; 100 mg/kg): 5382.65 pg/mL and 5518.93 pg/mL and 4695.59 pg/mL and 3380.13 pg/mL and 4061.97 pg/mL and 3178.30 pg/mL and 3700.08 pg/mL and 4913.16 pg/mL
- GM-CSF ([1]; 100 mg/kg): 21.37 pg/mL and 19.68 pg/mL and 33.25 pg/mL and 14.65 pg/mL and 16.32 pg/mL and 11.32 pg/mL
- IL-1β ([1]; 100 mg/kg): 10645 pg/mL and 6459 pg/mL and 7591 pg/mL and 8558 pg/mL and 9892 pg/mL and 7429 pg/mL and 7844 pg/mL and 8730 pg/mL
- IL-6 ([1]; 100 mg/kg): 135.95 pg/mL and 78.18 pg/mL and 127.03 pg/mL and 99.22 pg/mL and 71.56 pg/mL and 56.14 pg/mL and 105.88 pg/mL
- MMP9 ([1]; 100 mg/kg): 2385 pg/mL and 1353 pg/mL and 1095 pg/mL and 1490 pg/mL and 1351 pg/mL and 1232 pg/mL and 1807 pg/mL and 1236 pg/mL
- TNFα ([1]; 100 mg/kg): 204.74 pg/mL and 121.62 pg/mL and 366.33 pg/mL and 248.69 pg/mL and 116.08 pg/mL and 181.07 pg/mL and 124.38 pg/mL and 233.28 pg/mL
- CCL2 Mean ([1]; 100 mg/kg): 209 pg/mL
- CXCL1, Mean ([1]; 100 mg/kg): 5612 pg/mL
- CXCL2, Mean ([1]; 100 mg/kg): 4354 pg/mL
- GM-CSF Mean ([1]; 100 mg/kg): 19 pg/mL
- IL-1β Mean ([1]; 100 mg/kg): 8394 pg/mL
- IL-6 Mean ([1]; 100 mg/kg): 91 pg/mL
- MMP9, Mean ([1]; 100 mg/kg): 1494 pg/mL
- TNFα Mean ([1]; 100 mg/kg): 200 pg/mL
